Assay results reported in patent US9580416B2, “Inhibitors of Bruton's tyrosine kinase” (PHARMACYCLICS LLC, priority 2014, dated 2017).

Key:
Type in all cases: biochemical
Btk = Btk (Homo sapiens, UniProt Q06187); assay: Btk kinase activity, TR-FRET assay; details: read-out: Btk (IC50)
How it was run: (§1)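 Enzyme (Btk 0.5 nM; Lck 6 nM) reacted 1 h with inhibitor, ATP at Km and biotin-peptide substrate in pH 7.4 buffer, 10% DMSO. Phosphopeptide detected by Eu-p-Tyr100 antibody plus streptavidin-APC (665/615 nm). IC50 calculated from fitted Ki(app) via ATP/Km correction plus half total enzyme.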

Lck = Lck (Homo sapiens, UniProt P06239); assay: Lck kinase activity, TR-FRET assay; details: read-out: LCK (IC50)
Sequence of Lck (P06239 whole entry, species assumed): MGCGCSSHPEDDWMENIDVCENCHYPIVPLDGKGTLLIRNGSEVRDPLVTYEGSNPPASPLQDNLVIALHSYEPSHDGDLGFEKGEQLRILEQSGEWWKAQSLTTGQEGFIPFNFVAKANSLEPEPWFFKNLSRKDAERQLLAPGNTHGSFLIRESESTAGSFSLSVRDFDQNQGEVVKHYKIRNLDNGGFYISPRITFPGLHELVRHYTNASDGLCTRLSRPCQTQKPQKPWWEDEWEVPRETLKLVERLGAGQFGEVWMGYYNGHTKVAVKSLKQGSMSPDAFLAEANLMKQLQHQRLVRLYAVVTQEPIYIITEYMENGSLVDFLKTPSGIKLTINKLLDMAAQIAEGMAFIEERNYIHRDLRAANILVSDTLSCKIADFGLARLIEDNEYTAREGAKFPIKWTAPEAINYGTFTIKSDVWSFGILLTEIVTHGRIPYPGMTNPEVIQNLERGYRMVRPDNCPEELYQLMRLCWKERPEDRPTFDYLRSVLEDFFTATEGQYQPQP
How it was run: as §1

EGFR = EGFR (Homo sapiens, UniProt P00533); assay: Inhibition of a panel of kinases, in vitro HotSpot kinase assay: EGFR
Sequence of EGFR (P00533 25-1210): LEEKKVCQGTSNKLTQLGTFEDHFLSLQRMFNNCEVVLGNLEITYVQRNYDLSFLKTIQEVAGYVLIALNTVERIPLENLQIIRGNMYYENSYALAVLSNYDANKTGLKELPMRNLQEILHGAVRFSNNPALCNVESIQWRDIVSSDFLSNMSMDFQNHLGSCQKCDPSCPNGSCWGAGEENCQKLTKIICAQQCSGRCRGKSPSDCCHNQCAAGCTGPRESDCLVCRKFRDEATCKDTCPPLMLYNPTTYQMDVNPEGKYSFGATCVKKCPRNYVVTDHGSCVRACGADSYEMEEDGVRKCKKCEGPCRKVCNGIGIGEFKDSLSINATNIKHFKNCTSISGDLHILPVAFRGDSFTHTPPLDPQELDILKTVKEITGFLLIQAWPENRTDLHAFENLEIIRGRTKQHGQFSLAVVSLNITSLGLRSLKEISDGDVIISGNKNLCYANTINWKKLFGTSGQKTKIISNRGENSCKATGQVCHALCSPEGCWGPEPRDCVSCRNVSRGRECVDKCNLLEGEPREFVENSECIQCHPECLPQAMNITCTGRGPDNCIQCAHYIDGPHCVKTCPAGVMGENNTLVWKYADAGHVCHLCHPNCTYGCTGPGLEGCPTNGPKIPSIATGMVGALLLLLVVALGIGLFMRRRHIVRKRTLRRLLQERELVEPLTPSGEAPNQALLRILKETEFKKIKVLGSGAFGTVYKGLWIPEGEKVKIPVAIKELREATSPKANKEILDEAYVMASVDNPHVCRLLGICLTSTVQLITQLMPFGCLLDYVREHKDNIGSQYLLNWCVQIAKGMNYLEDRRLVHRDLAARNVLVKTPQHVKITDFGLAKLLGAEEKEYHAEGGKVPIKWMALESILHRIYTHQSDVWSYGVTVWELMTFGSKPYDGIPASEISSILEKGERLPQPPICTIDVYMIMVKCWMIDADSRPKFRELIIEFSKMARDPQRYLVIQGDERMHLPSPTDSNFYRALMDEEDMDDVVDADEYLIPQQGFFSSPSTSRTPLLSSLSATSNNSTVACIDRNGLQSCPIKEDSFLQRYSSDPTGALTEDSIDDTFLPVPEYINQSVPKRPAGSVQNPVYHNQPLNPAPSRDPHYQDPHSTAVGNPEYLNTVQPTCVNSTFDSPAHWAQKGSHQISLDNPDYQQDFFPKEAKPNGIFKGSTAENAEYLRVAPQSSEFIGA
Method: (§2) The degree of inhibition of a panel of kinases is determined using the in vitro HotSpot kinase assay (purified enzymes, ^33P-ATP, an appropriate substrate and 1 uM ATP).

JAK3 = molecular target: T1, JAK3 (Homo sapiens, UniProt P52333); assay: Inhibition of a panel of kinases, in vitro HotSpot kinase assay: JAK3
T1 sequence (P52333 1-1124): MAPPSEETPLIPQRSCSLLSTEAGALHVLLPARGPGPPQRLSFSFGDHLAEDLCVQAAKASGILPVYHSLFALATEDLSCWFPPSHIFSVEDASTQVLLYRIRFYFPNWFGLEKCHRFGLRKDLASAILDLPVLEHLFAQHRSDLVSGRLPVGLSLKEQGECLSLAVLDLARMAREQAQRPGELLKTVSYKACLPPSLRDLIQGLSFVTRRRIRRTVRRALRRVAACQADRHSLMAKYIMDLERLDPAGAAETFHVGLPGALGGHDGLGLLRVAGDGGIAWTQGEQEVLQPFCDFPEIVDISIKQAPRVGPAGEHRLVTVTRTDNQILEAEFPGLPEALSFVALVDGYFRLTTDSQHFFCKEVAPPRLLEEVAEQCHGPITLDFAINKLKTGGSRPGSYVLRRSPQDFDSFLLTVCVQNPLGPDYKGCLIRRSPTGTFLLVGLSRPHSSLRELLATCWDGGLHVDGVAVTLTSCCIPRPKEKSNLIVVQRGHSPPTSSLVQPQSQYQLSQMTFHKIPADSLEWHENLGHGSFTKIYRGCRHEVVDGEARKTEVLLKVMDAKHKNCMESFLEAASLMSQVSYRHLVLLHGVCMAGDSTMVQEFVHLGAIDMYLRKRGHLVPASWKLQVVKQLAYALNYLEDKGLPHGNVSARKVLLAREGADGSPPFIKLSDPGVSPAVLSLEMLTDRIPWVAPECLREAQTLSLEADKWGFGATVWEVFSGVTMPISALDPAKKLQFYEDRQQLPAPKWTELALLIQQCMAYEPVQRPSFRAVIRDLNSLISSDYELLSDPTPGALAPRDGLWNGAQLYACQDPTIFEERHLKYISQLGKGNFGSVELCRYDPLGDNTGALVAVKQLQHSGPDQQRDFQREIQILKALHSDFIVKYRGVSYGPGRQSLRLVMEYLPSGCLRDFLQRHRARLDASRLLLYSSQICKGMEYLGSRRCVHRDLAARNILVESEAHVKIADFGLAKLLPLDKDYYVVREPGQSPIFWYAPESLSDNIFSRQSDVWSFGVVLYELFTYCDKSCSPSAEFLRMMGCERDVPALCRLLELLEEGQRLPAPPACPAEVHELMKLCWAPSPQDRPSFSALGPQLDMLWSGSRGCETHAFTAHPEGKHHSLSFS
Method: as §2

Sequence of Btk (Q06187 whole entry): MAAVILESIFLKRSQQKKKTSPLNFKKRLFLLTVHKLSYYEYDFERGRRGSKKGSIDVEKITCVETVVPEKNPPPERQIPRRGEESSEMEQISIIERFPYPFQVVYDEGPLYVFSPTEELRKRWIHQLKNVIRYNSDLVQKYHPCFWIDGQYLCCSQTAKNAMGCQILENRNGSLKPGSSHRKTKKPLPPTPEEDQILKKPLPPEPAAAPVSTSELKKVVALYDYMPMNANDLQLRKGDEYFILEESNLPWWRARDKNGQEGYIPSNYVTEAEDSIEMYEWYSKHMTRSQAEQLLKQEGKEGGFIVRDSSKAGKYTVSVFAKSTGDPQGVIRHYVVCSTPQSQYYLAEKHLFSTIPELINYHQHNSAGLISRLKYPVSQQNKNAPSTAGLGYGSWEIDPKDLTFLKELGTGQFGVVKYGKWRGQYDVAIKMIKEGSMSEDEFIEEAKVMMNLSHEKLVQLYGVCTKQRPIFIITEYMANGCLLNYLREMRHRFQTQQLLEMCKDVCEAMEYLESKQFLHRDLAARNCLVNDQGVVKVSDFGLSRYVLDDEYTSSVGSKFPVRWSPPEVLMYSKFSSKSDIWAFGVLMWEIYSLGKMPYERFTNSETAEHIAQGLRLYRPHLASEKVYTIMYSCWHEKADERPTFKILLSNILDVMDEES

IC50 (Btk)	IC50 (Lck)	IC50 (EGFR)	IC50 (JAK3)	SMILES
< 100 nM	100 to 1000 nM	> 10000 nM	> 10000 nM	Cc1ccnc(NC(=O)c2ccc(Oc3ccnc4[nH]nc(N[C@@H]5CCCN(C(=O)C(=O)N(C)C)C5)c34)cc2)c1 [compound 98, 4-[(3-{[(3R)-1-[(dimethylcarbamoyl)carbonyl]piperidin-3-yl]amino}-1H-pyrazolo[3,4-b]pyridin-4-yl)oxy]-N-(4-methylpyridin-2-yl)benzamide]
< 100 nM	< 100 nM	< 100 nM	< 100 nM	C=CC(=O)N1CCC[C@@H](Nc2n[nH]c3nccc(Oc4ccc(NC(=O)Nc5cc(C(F)(F)F)ccn5)cc4)c23)C1 [compound 201, 1-{4-[(3-{[(3R)-1-(prop-2-enoyl)piperidin-3-yl]amino}-1H-pyrazolo[3,4-b]pyridin-4-yl)oxy]phenyl}-3-[4-(trifluoromethyl)pyridin-2-yl]urea]
100 to 1000 nM	> 10000 nM	> 10000 nM	> 10000 nM	CN1CCc2sc(NC(=O)c3ccc(Oc4ccnc5[nH]nc(N[C@@H]6CCCN(C(=O)/C=C/CN(C)C7CC7)C6)c45)cc3)nc2C1 [compound 137, 4-[(3-{[(3R)-1-[(2E)-4-[cyclopropyl(methyl)amino]but-2-enoyl]piperidin-3-yl]amino}-1H-pyrazolo[3,4-b]pyridin-4-yl)oxy]-N-{5-methyl-4H,5H,6H,7H-[1,3]thiazol[4,5-c]pyridin-2-yl}benzamide]
< 100 nM	< 100 nM	< 100 nM	100 to 1000 nM	C=CC(=O)N1CC[C@@H](Nc2n[nH]c3nccc(Oc4ccc(Oc5ccccc5)cc4)c23)C1 [compound 4, 1-[(3R)-3-{[4-(4-phenoxyphenoxy)-1H-pyrazolo[3,4-b]pyridin-3-yl]amino}pyrrolidin-1-yl]prop-2-en-1-one]
< 100 nM	100 to 1000 nM	> 10000 nM	> 10000 nM	Cc1ccnc(NC(=O)c2ccc(Oc3ccnc4[nH]nc(N[C@@H]5CCCN(C(=O)C6(C)CCN(C)CC6)C5)c34)cc2)c1 [compound 283, (R)-4-(3-(1-(1,4-dimethylpiperidine-4-carbonyl)piperidin-3-ylamino)-1H-pyrazolo[3,4-b]pyridin-4-yloxy)-N-(4-methylpyridin-2-yl)benzamide]
< 100 nM	< 100 nM	1000 to 10000 nM	> 10000 nM	CN1CCC(C(=O)N2CCC[C@@H](Nc3n[nH]c4nccc(Oc5ccc(C(=O)Nc6cc(C(F)(F)F)ccn6)cc5)c34)C2)CC1 [compound 204, 4-[(3-{[(3R)-1-(1-methylpiperidine-4-carbonyl)piperidin-3-yl]amino}-1H-pyrazolo[3,4-b]pyridin-4-yl)oxy]-N-[4-(trifluoromethyl)pyridin-2-yl]benzamide]
< 100 nM	100 to 1000 nM	1000 to 10000 nM	> 10000 nM	Cc1ccnc(NC(=O)c2ccc(Oc3ccnc4[nH]nc(NC5CCN(C#N)CC5)c34)cc2)c1 [compound 278, 4-(3-(1-cyanopiperidin-4-ylamino)-1H-pyrazolo[3,4-b]pyridin-4-yloxy)-N-(4-methylpyridin-2-yl)benzamide]
< 100 nM	100 to 1000 nM	> 10000 nM	> 10000 nM	Cc1ccnc(NC(=O)c2ccc(Oc3ccnc4[nH]nc(N[C@@H]5CCCN(C(=O)[C@@H]6CCOC6)C5)c34)cc2)c1 [compound 115, N-(4-methylpyridin-2-yl)-4-[(3-{[(3R)-1-[(3R)-oxolane-3-carbonyl]piperidin-3-yl]amino}-1H-pyrazolo[3,4-b]pyridin-4-yl)oxy]benzamide]
< 100 nM	< 100 nM	100 to 1000 nM	1000 to 10000 nM	Cc1cc(Oc2ccccc2)ccc1Oc1ccnc2[nH]nc(N[C@@H]3CCCN(C(=O)/C=C/CN(C)C4CC4)C3)c12 [compound 169]
100 to 1000 nM	1000 to 10000 nM	> 10000 nM	> 10000 nM	CCNC(=O)N1CCC[C@@H](Nc2n[nH]c3nccc(Oc4ccc(-c5nc6ccccc6s5)cc4)c23)C1 [compound 216, (3R)-3-({4-[4-(1,3-benzothiazol-2-yl)phenoxy]-1H-pyrazolo[3,4-b]pyridin-3-yl}amino)-N-ethylpiperidine-1-carboxamide]
< 100 nM	100 to 1000 nM	1000 to 10000 nM	> 10000 nM	Cc1cnc(NC(=O)c2ccc(Oc3ccnc4[nH]nc(N[C@@H]5CCN(C(=O)C6CCN(C)CC6)C5)c34)cc2)s1 [compound 221, N-(5-methyl-1,3-thiazol-2-yl)-4-[(3-{[(3R)-1-(1-methylpiperidine-4-carbonyl)pyrrolidin-3-yl]amino}-1H-pyrazolo[3,4-b]pyridin-4-yl)oxy]benzamide]
1000 to 10000 nM	> 10000 nM	> 10000 nM	> 10000 nM	Cc1cccc2nc(-c3ccc(Oc4ccnc5[nH]nc(N[C@@H]6CCCN(C(=O)C7CC7)C6)c45)cc3)oc12 [compound 220, (3R)-1-cyclopropanecarbonyl-N-{4-[4-(7-methyl-1,3-benzoxazol-2-yl)phenoxy]-1H-pyrazolo[3,4-b]pyridin-3-yl}piperidin-3-amine]
< 100 nM	1000 to 10000 nM	> 10000 nM	> 10000 nM	Cc1cnc(NC(=O)c2ccc(Oc3ccnc4[nH]nc(N[C@@H]5CCN(C(=O)CCCN(C)C)C5)c34)cc2)s1 [compound 202, 4-[(3-{[(3R)-1-[4-(dimethylamino)butanoyl]pyrrolidin-3-yl]amino}-1H-pyrazolo[3,4-b]pyridin-4-yl)oxy]-N-(5-methyl-1,3-thiazol-2-yl)benzamide]
< 100 nM	1000 to 10000 nM	> 10000 nM	> 10000 nM	Cc1ccnc(NC(=O)c2ccc(Oc3ccnc4[nH]nc(N[C@@H]5CCN(C(=O)C6(C#N)CC6)C5)c34)cc2)c1 [compound 279, (R)-4-(3-(1-(1-cyanocyclopropanecarbonyl)pyrrolidin-3-ylamino)-1H-pyrazolo[3,4-b]pyridin-4-yloxy)-N-(4-methylpyridin-2-yl)benzamide]
< 100 nM	1000 to 10000 nM	< 100 nM	< 100 nM	C=CC(=O)N1CCC[C@@H](Nc2n[nH]c3nccc(Oc4cccc(C(=O)Nc5ncc(C)s5)c4)c23)C1 [compound 149]
< 100 nM	100 to 1000 nM	1000 to 10000 nM	> 10000 nM	Cc1cnc(NC(=O)c2ccc(Oc3ccnc4[nH]nc(N[C@@H]5CCCN(C(=O)/C=C/CN(C)C)C5)c34)cc2)s1 [compound 198, 4-[(3-{[(3R)-1-[(2E)-4-(dimethylamino)but-2-enoyl]piperidin-3-yl]amino}-1H-pyrazolo[3,4-b]pyridin-4-yl)oxy]-N-(5-methyl-1,3-thiazol-2-yl)benzamide]

SMILES	IC50 (Btk)	IC50 (Lck)	IC50 (EGFR)	IC50 (JAK3)
CCOP(=O)(CCC(=O)N1CCC[C@@H](Nc2n[nH]c3nccc(Oc4ccc(C(=O)Nc5cc(C)ccn5)cc4)c23)C1)OCC [compound 273, (R)-diethyl 3-(3-(4-(4-(4-methylpyridin-2-ylcarbamoyl)phenoxy)-1H-pyrazolo[3,4-b]pyridin-3-ylamino)piperidin-1-yl)-3-oxopropylphosphonate]	< 100 nM	1000 to 10000 nM	> 10000 nM	> 10000 nM
